From patent US5614526A, “Use of phenoxy-piperzine derivatives” (Hoffmann-La Roche Inc., priority 1995, dated 1997)

What follows are compounds tested on D2 receptor (assay: Binding at the D2 receptor, [3H]spiperone displacement, membranes of D2-CHO cells (selectivity vs. D4)). Settings: ratio of the Ki values at the D2 receptor and at the D4 receptor.
Method: CHO cells (Chinese Hamster Ovary) were used in the test. Crude membranes were isolated by ultracentrifugation from D4 -CHO and D2 -CHO cells and were stored at -80° C. After thawing and homogenizing in a buffer solution (50mM Tris, 1 mM EDTA, 5 mM KCl, 1.5 mM CaCl2, 4 mM MgCl2, pH 7.4) they were incubated at room temperature for 90 minutes with 200 pM [^3 H] spiperone and an increasing concentration (1×10^-11 M to 1×10^-4 M) of test compound. A non-specific binding was established by incubating in the presence of 1×10^-5 M (+)-butaclamol. The unbound radioligand was removed by filtration through a GF/C glass filter and the bound radioactivity was determined by scintillation in a Packard TopCount.
Compounds of formula I were compared with respect to their D2 receptor activity.

Row | SMILES | Sel. vs. D2
1 | CCC(=O)Nc1ccccc1OCC(O)CN1CCN(c2ccccc2)CC1 (stereo not drawn) [Compound 24] | 233
2 | COc1ccccc1N1CCN(CC(O)COc2ccccc2NS(C)(=O)=O)CC1 (stereo not drawn) [Compound 26] | 177
3 | Cc1cccc(OCC(O)CN2CCN(c3ccccc3)CC2)c1 (stereo not drawn) [Compound 23] | 300
4 | COc1ccccc1N1CCN(CC(O)COc2ccc([N+](=O)[O-])cc2NC(C)=O)CC1 (stereo not drawn) [Compound 27] | 112
5 | CC(=O)Nc1ccccc1OCC(O)CN1CCN(c2ccccc2[N+](=O)[O-])CC1 (stereo not drawn) [Compound 29] | 360
6 | COc1cc(O)ccc1N1CCN(CC(O)COc2ccccc2NC(C)=O)CC1 (stereo not drawn) [Compound 25] | 1370

What follows are compounds tested against T1, dopamine-D4 receptor (Homo sapiens, UniProt P21917) (assay: Binding at the D4 receptor, [3H]spiperone displacement, membranes of D4-CHO cells). Settings: Table 1, 200 pM [3H]spiperone, room temperature, 90 minutes.
T1 construct: expressed in transfected cells; host or cells: CHO (Chinese Hamster Ovary) cells, D4-CHO; crude membranes
T1 sequence (P21917 1-419): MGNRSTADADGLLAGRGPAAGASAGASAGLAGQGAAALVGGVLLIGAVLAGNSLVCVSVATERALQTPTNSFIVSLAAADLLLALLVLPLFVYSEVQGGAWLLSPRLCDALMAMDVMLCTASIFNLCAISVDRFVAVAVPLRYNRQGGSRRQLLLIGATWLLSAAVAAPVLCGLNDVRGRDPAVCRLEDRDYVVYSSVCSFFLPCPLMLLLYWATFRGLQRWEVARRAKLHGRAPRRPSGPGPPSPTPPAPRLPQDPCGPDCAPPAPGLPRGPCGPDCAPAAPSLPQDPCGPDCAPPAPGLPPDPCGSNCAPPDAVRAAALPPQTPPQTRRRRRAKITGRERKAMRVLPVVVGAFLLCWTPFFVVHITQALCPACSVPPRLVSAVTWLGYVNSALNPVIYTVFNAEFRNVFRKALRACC
Method: Compounds of formula I were characterized by their binding behavior at the D4 receptor. CHO cells (Chinese Hamster Ovary) were used in the test. Crude membranes were isolated by ultracentrifugation from D4 -CHO and D2 -CHO cells and were stored at -80° C. After thawing and homogenizing in a buffer solution (50mM Tris, 1 mM EDTA, 5 mM KCl, 1.5 mM CaCl2, 4 mM MgCl2, pH 7.4) they were incubated at room temperature for 90 minutes with 200 pM [^3 H] spiperone and an increasing concentration (1×10^-11 M to 1×10^-4 M) of test compound. A non-specific binding was established by incubating in the presence of 1×10^-5 M (+)-butaclamol. The unbound radioligand was removed by filtration through a GF/C glass filter and the bound radioactivity was determined by scintillation in a Packard TopCount. […] The calculation of the value was effected with ligand.

Row | Ki [nM] | SMILES
7 | < 100 | COc1ccccc1N1CCN(CC(COc2ccccc2NC(C)=O)OC(C)=O)CC1 (stereo not drawn) [Compound 30, Ethyl 2-(2-acetylamino-phenoxy)-1-[4-(2-methoxy-phenyl)-piperazin-1-ylmethyl]-acetate]
8 | < 100 | COc1ccccc1N1CCN(CC(O)COc2ccccc2NC(C)=O)CC1 (racemic) [10(rac), N-[2-[2-Hydroxy-3-[4-(2-methoxy-phenyl)-piperazin-1-yl]-propoxy]-phenyl]-acetamide]
9 | < 100 | CC(=O)c1ccccc1OCC(O)CN1CCN(c2ccccc2)CC1 (stereo not drawn) [Compound 3, 1-[2-[2-Hydroxy-3-(4-phenyl-piperazin-1-yl)-propoxy]-phenyl]-ethanone]
10 | < 100 | CCC(=O)Nc1ccccc1OCC(O)CN1CCN(c2ccccc2OC)CC1 (stereo not drawn) [Compound 13, N-[2-[2-Hydroxy-3-[4-(2-methoxy-phenyl)-piperazin-1-yl]-propoxy]-phenyl]propionamide]
11 | < 100 | OC(COc1ccccc1)CN1CCN(c2ccccc2)CC1 (stereo not drawn) [Compound 1, 1-Phenoxy-3-(4-phenyl-piperazin-1-yl)-propan-2-ol]
12 | < 100 | COc1ccccc1N1CCN(CC(O)COc2ccccc2NC(C)=O)CC1 (single isomer, unassigned) [11(+), [+]-N-[2-[2-Hydroxy-3-[4-(2-methoxy-phenyl)-piperazin-1-yl]-propoxy]phenyl]-acetamide]
13 | < 100 | COc1ccccc1N1CCN(CC(O)COc2ccccc2N)CC1 (single isomer, unassigned) [9(+), [+]-1-(2-Amino-phenoxy)-3-[4(2-methoxy-phenyl)-piperazin-1-yl]-propan-2-ol]
14 | < 100 | CC(=O)Nc1ccccc1OCC(O)CN1CCN(c2ccccc2C(F)(F)F)CC1 (stereo not drawn) [Compound 7, N-[2-[2-Hydroxy-3-[4-(2-trifluoromethyl-phenyl)-piperazin-1yl]-propoxy]phenyl]-acetamide]
15 | < 100 | COc1ccccc1N1CCN(CC(O)COc2ccccc2NC(C)=O)CC1 (single isomer, unassigned) [12(-), [-]-N-[2-[2-Hydroxy-3-[4-(2-methoxy-phenyl)-piperazin-1-yl]-propoxy]phenyl]-acetamide]
16 | < 100 | COc1ccccc1N1CCN(CC(COc2ccccc2NC(C)=O)OC(C)=O)CC1 (single isomer, unassigned) [31(+), Ethyl [+]-2-(2-acetylamino-phenoxy)-1-[4-(2-methoxy-phenyl)-piperazin-1-ylmethyl]acetate]
17 | < 100 | CC(=O)Nc1ccccc1OCC(O)CN1CCN(c2ccccc2O)CC1 (stereo not drawn) [Compound 8, N-[2-[2-Hydroxy-3-[4-(2-hydroxy-phenyl)-piperazin-1-yl]-propoxy]-phenyl]-acetamide]
18 | < 100 | COc1ccccc1N1CCN(CC(O)COc2ccccc2NC(=O)c2ccco2)CC1 (stereo not drawn) [Compound 17, Furan-2-carboxylic acid [2-[2hydroxy-3-[4-(2-methoxy-phenyl)piperazin-1-yl]-propoxy]-phenyl]-amide]
19 | < 100 | CC(=O)Nc1ccccc1OCC(O)CN1CCN(c2ccccc2C)CC1 (stereo not drawn) [Compound 6, N-[2-[2-Hydroxy-3-(4-o-tolyl-piperazin-1-yl)-propoxy]-phenly]-acetamide]
20 | < 100 | C/C=C/C(=O)Nc1ccccc1OCC(O)CN1CCN(c2ccccc2OC)CC1 (single isomer, unassigned) [Compound 16, [+]-(E)-But-2-enolic acid [2-[2-hydroxy-3-[4-(2-methoxy-phenyl)-piperazin-1-yl]-propoxy]-phenyl]-amide]
21 | < 100 | Nc1ccccc1OCC(O)CN1CCN(c2ccccc2[N+](=O)[O-])CC1 (stereo not drawn) [Compound 22, 1-(2-Amino-phenoxy)-3-[4-(2-nitro-phenyl)-piperazin-1-yl]-propan-2-ol]
22 | < 100 | COc1ccccc1N1CCN(CC(O)COc2ccc(C)cc2NC(C)=O)CC1 (stereo not drawn) [Compound 19, N-[2-[2-Hydroxy-3-[4-(2-methoxy-phenyl)-piperazin-1-yl]-proxpoxy]-5-methyl-phenyl]-acetamide]
23 | < 100 | Nc1ccccc1OCC(O)CN1CCN(c2ccccc2)CC1 (stereo not drawn) [Compound 2, 1-(2-Amino-phenoxy)-3-(4-phenyl-piperazin-1-yl)-propan-2-ol]
24 | < 100 | COc1ccccc1N1CCN(CC(O)COc2cc(C)ccc2NC(C)=O)CC1 (stereo not drawn) [Compound 20, N-[2-[2-Hydroxy-3-[4-(2-methoxy-phenyl)-piperazin-1-yl]-propoxy]-4-methyl-phenyl]-acetamide]
25 | < 100 | COc1ccccc1N1CCN(CC(O)COc2ccccc2NC(N)=O)CC1 (stereo not drawn) [Compound 18, [2-[2-Hydroxy-3-[4-(2-methoxy-phenyl)-piperazin-1-yl]propoxy]-phenyl]-urea]
26 | < 100 | COc1ccccc1N1CCN(CC(O)COc2ccccc2NC(=O)C(C)(C)C)CC1 (stereo not drawn) [Compound 15, N-[2-[2-Hydroxy-3-[4-(2-methoxy-phenyl)-piperazin-1-yl]-propoxy]-phenyl]-2,2-dimethyl-propionamide]
27 | < 100 | NC(=O)c1ccccc1OCC(O)CN1CCN(c2ccccc2)CC1 (stereo not drawn) [Compound 4, 2-[2-Hydroxy-3-(4-phenyl-piperazin-1-yl)-propoxy]-benzamide]
28 | < 100 | CCCCCC(=O)Nc1ccccc1OCC(O)CN1CCN(c2ccccc2OC)CC1 (stereo not drawn) [Compound 14, Hexanoic acid [2-[2-hydroxy-3-[4-(2-methoxy-phenyl)-piperazin-1-yl]propoxy]-phenyl]-amide]
29 | < 100 | OC(COc1cccc(C(F)(F)F)c1)CN1CCN(c2ccc(Cl)cc2)CC1 (stereo not drawn) [Compound 5, 1-[4-(4-Chloro-phenyl)-piperazin-1-yl]-3-(3-trifluoro-methyl-phenoxy)-propan-2-ol]
30 | < 100 | CCOc1ccccc1N1CCN(CC(O)COc2ccccc2NC(=O)CC)CC1 (stereo not drawn) [Compound 21, N-[2-[3-[4-(2-Ethoxy-phenyl)-piperazin-1-yl]-2-hydroxy-propoxy]-phenyl]propionamide]

Same assay, conditions: Table 2, 200 pM [3H]spiperone, room temperature, 90 minutes

Row | Ki [nM] | SMILES
31 | 29 | CCC(=O)Nc1ccccc1OCC(O)CN1CCN(c2ccccc2)CC1 (stereo not drawn) [Compound 24]
32 | 3.2 | COc1ccccc1N1CCN(CC(O)COc2ccccc2NS(C)(=O)=O)CC1 (stereo not drawn) [Compound 26]
33 | 9.6 | Cc1cccc(OCC(O)CN2CCN(c3ccccc3)CC2)c1 (stereo not drawn) [Compound 23]
34 | 15 | COc1ccccc1N1CCN(CC(O)COc2ccc([N+](=O)[O-])cc2NC(C)=O)CC1 (stereo not drawn) [Compound 27]
35 | 8.7 | CC(=O)Nc1ccccc1OCC(O)CN1CCN(c2ccccc2[N+](=O)[O-])CC1 (stereo not drawn) [Compound 29]
36 | 10.2 | COc1cc(O)ccc1N1CCN(CC(O)COc2ccccc2NC(C)=O)CC1 (stereo not drawn) [Compound 25]
